One may read the IC50 as the concentration at which inhibition is half-maximal. In general, EC50 refers to the concentration that produces a half-maximal response.

This note sets out measurements from patent publication US11179397B2, “Imidazopyrimidine derivatives” (Gilead Sciences, Inc., priority 2018, dated 2021).

Test [1] deals with SHP-2 full length protein (Homo sapiens (Human), UniProt Q06124). The experiment in a line: SHP-2 biochemical DiFMUP pseudosubstrate-fluorogenic assay. Conditions: 0.2 nM SHP-2, 1 μM IRS-1 activator peptide, 50 μM DiFMUP; read-out: SHP2 IC50. As to the method: SHP-2 Biochemical Assay Materials Recombinant SHP-2 full length protein was generated in house. SHP-2 protein tyrosine phosphatase (PTP) domain protein (Catalog number SPR0217-20 ug), NaCl (Catalog number S6546-1L), and KCl (Catalog number 60142-500 mL) were purchased from Sigma-Aldrich (St. Louis, Mo.). IRS-1_[…](dPEG8)[…] peptide […]) was custom made by AnaSpec (Fremont, Calif.). DiFMUP substrate (Catalog number D6567), EDTA (Catalog number E177-500 mL), DTT (Catalog number P2325), and 384-well black polystyrene non-binding surface (Catalog number 3820) were purchased from Fisher Scientific (Hanover Park, Ill.). HEPES (Catalog number 15630-080) was purchased from Life Technologies (Pleasanton, Calif.), and Tween-20 (Catalog number 95059-250) was purchased from VWR (Radnor, Pa.). Method Inhibition of SHP-2 activity by small molecule inhibitors was monitored by a biochemical DiFMUP pseudosubstrate-fluorogenic assay. […] The reaction mix was added to the 384-well non-binding plate which had been pre-spotted with 1:3 serial diluted compounds from 10,000-0.005 nM, and incubated at room temperature for 90 min. DiFMUP substrate at final concentration of 50 μM was then added to the wells and incubated for additional 30 min at room temperature. The final reaction volume was 20 μl/well. […] The inhibitor dose response curves were generated using normalized IC50 regression curve fitting by in house dose response analysis tools. The wells with DMSO vehicle were used as controls (100% signal). The percent (%) control of SHP-2 compound was calculated as: (Compound well fluorescence counts/DMSO fluorescence counts)×100%.
SHP-2 full length protein, sequence (Q06124 whole entry): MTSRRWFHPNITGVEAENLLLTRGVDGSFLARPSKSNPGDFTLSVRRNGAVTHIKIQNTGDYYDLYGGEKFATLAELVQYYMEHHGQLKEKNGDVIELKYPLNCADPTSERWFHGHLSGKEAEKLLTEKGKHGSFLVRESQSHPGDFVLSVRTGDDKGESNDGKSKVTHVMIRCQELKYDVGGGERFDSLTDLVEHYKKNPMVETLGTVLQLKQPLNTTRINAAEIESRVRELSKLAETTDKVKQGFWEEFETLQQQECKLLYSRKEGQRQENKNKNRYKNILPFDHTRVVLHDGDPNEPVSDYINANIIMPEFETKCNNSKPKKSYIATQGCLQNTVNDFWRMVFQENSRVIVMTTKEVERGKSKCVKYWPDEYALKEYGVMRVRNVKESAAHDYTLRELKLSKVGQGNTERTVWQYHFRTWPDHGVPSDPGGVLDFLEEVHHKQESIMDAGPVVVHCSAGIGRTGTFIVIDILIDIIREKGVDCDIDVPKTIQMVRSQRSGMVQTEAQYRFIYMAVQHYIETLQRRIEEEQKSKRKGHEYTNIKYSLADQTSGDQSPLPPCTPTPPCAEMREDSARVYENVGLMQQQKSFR

In test [2] the test system is NCI-H358 cells. The experiment in a line: NCI-H358 3D tumor spheroid growth inhibition. The class given is cell-based. The following applies: Homo sapiens, NCI-H358, 168 h, 3D spheroids, 7 days, 3D CellTiter Glo; cellular IC50 designated EC50; read-out: H358 EC50. The source says: SHP-2 Cell Based Assay: […] Materials NCI-H358 cell line was purchased from [NT] number ATCC CRL-5807) (Manassas, Va.). RPMI-1640 (Catalog number 10-040-CM) was from Corning Cellgro (Manassas, Va.), Fetal Bovine Serum (FBS) (Catalog number SH30071.03) was from HyClone (Logan, Utanh), and 100× Penicillin/Streptomycin/L-Glutamine stock (Catalog no. 30-009-CI) and 384-well ULA plates (Catalog number 3830) were from Corning (Fremont, Calif.). Method […] At the day of assay, the cells were trypsinized and seeded at 1000 cells/70 μl/well in 384-well ULA plates and incubated at 37° C. incubator with 5% CO2 to allow spheroids to form. […] The plates were incubated for additional 7 days. Then 35 μl of medium from each well was removed, and replaced with 35 μl of 3D CellTiter Glo reagent from Promega. The wells were mixed by pipetting up and down with Biomek FX for 15 times to induce cell lysis and the plates were incubated at room temperature for additional 10 min to stabilize luminescent signal. The luminescence was then read by Envision. The inhibitor dose response curves were generated using normalized cellular IC50 (designated as EC50 in all FIGURES to distinguish from biochemical IC50s) by in house dose response analyses tools. The wells with DMSO vehicle were used as negative controls (0% inhibition). The % inhibition of SHP-2 compounds was calculated as: 100-[(Compound well luminescence counts/DMSO luminescence counts)×100%].
For orientation: In ATP-based viability assays light output follows the ATP content of the culture.

With `NC1CC2CN(c3ncc(Sc4cccc(Cl)c4Cl)c4nccn34)CC2C1` (centres unmarked) [Example 40, 2-(8-((2,3-dichlorophenyl)thio)imidazo[1,2-c]pyrimidin-5-yl)octahydrocyclopenta[c]pyrrol-5-amine], in test [1], the IC50 worked out at 190 nM. Further, the concentration for a half-maximal effect (EC50) in test [2] worked out at 3200 nM.
The matching figures for `NCC1CC2CN(c3ncc(Sc4cccc(Cl)c4Cl)c4nccn34)CC2C1` (centres unmarked) [Example 41, (2-(8-((2,3-dichlorophenyl)thio)imidazo[1,2-c]pyrimidin-5-yl)octahydrocyclopenta[c]pyrrol-5-yl)methanamine]: 150 nM and 3200 nM.
The matching figures for `NC[C@H]1[C@H]2CN(c3ncc(Sc4cccc(Cl)c4Cl)c4nccn34)C[C@@H]12` [Example 42, ((1R,5S,6r)-3-(8-((2,3-dichlorophenyl)thio)imidazo[1,2-c]pyrimidin-5-yl)-3-azabicyclo[3.1.0]hexan-6-yl)methanamine]: 80 nM and 1300 nM.
In the case of `N[C@@H]1CCCC12CCN(c1ncc(Sc3cccc(Cl)c3Cl)c3nccn13)CC2` [Example 44, (R)-8-(8-((2,3-dichlorophenyl)thio)imidazo[1,2-c]pyrimidin-5-yl)-8-azaspiro[4.5]decan-1-amine], the IC50 in test [1] is 2.8 nM. Also, the half-maximal effective concentration (EC50) in test [2] stood at 130 nM.
For `Nc1nccc(Sc2cnc(N3CCC4(CCC[C@H]4N)CC3)n3ccnc23)c1Cl` [Example 45, (R)-8-(8-((2-amino-3-chloropyridin-4-yl)thio)imidazo[1,2-c]pyrimidin-5-yl)-8-azaspiro[4.5]decan-1-amine], in that order: 5.6 nM and 170 nM.
For `N[C@@H]1CCCC12CCN(c1ncc(Sc3ccnc(Cl)c3Cl)c3nccn13)CC2` [Example 46, (R)-8-(8-((2,3-dichloropyridin-4-yl)thio)imidazo[1,2-c]pyrimidin-5-yl)-8-azaspiro[4.5]decan-1-amine], in that order: 3.1 nM and 31 nM.
Turning to `Cc1nccc(Sc2cnc(N3CCC4(CCC[C@H]4N)CC3)n3ccnc23)c1Cl` [Example 47, (R)-8-(8-((3-chloro-2-methylpyridin-4-yl)thio)imidazo[1,2-c]pyrimidin-5-yl)-8-azaspiro[4.5]decan-1-amine], the IC50 in test [1] is 7.6 nM. Further, the EC50 in test [2] was found to be 150 nM.
For `CC1(N)CCN(c2ncc(Sc3cccc(Cl)c3Cl)c3nccn23)CC1` [Example 48, 1-(8-((2,3-dichlorophenyl)thio)imidazo[1,2-c]pyrimidin-5-yl)-4-methylpiperidin-4-amine], in that order: 120 nM and 1700 nM.
The matching figures for `N[C@@H]1CCCC12CCN(c1ncc(-c3cccc(Cl)c3Cl)c3nccn13)CC2` [Example 52, (R)-8-(8-(2,3-dichlorophenyl)imidazo[1,2-c]pyrimidin-5-yl)-8-azaspiro[4.5]decan-1-amine]: 280 nM and above 12500 nM.
For `C[C@@H]1OCC2(CCN(c3ncc(Sc4cccc(Cl)c4Cl)c4nccn34)CC2)[C@@H]1N` [Example 55, (3S,4S)-8-(8-((2,3-dichlorophenyl)thio)imidazo[1,2-c]pyrimidin-5-yl)-3-methyl-2-oxa-8-azaspiro[4.5]decan-4-amine], in that order: 1.5 nM and 49 nM.
With `NC1CCCN(c2ncc(Sc3cccc(Cl)c3Cl)c3nccn23)CC1` (centres unmarked) [Example 56, 1-(8-((2,3-dichlorophenyl)thio)imidazo[1,2-c]pyrimidin-5-yl)azepan-4-amine], in test [1], the IC50 came out at 75 nM. Besides, the EC50 in test [2] came to 990 nM.
For `Clc1cccc(Sc2cnc(N3CCC4(CCCCN4)CC3)n3ccnc23)c1Cl` [Example 57, 9-(8-((2,3-dichlorophenyl)thio)imidazo[1,2-c]pyrimidin-5-yl)-1,9-diazaspiro[5.5]undecane], in test [1], the IC50 stood at 500 nM. Further, the half-maximal effective concentration (EC50) in test [2] was above 12500 nM.
On to `NC1CC2(CCN(c3ncc(Sc4cccc(Cl)c4Cl)c4nccn34)C2)C1` (centres unmarked) [Example 58, 6-(8-((2,3-dichlorophenyl)thio)imidazo[1,2-c]pyrimidin-5-yl)-6-azaspiro[3.4]octan-2-amine], for which the IC50 in test [1] turned out to be 340 nM. For the same compound, the EC50 in test [2] is 4400 nM.
The matching figures for `CC1(N)CCN(c2ncc(Sc3cccc(Cl)c3Cl)c3nncn23)CC1` [Example 61, 1-(8-((2,3-dichlorophenyl)thio)-[1,2,4]triazolo[4,3-c]pyrimidin-5-yl)-4-methylpiperidin-4-amine]: 130 nM and 2300 nM.
For `CC1(N)CCN(c2ncc(Sc3cccc(Cl)c3Cl)c3ncnn23)CC1` [Example 62, 1-(8-((2,3-dichlorophenyl)thio)-[1,2,4]triazolo[1,5-c]pyrimidin-5-yl)-4-methylpiperidin-4-amine], the concentration for half-maximal inhibition (IC50) in test [1] was determined as 1300 nM. For the same compound, in test [2], the half-maximal effective concentration (EC50) was above 12500 nM.
For the compound `Nc1nccc(Sc2cnc(N3CCC4(CCC[C@H]4N)CC3)n3cnnc23)c1Cl` [Example 63, (R)-8-(8-((2-amino-3-chloropyridin-4-yl)thio)-[1,2,4]triazolo[4,3-c]pyrimidin-5-yl)-8-azaspiro[4.5]decan-1-amine], in test [1], the IC50 worked out at 13 nM. In test [2], the EC50 stood at 580 nM.
For `Cc1nc(N2CCC3(CCC[C@H]3N)CC2)n2cnnc2c1-c1cnc(N)c(Cl)c1Cl` [Example 66, (R)-8-(8-(6-amino-4,5-dichloropyridin-3-yl)-7-methyl-[1,2,4]triazolo[4,3-c]pyrimidin-5-yl)-8-azaspiro[4.5]decan-1-amine], in that order: 140 nM and 2900 nM.
For `Cc1nc(N2CCC3(CC2)CO[C@@H](C)[C@H]3N)n2cnnc2c1-c1cccc(Cl)c1Cl` [Example 67, (3S,4S)-8-(8-(2,3-dichlorophenyl)-7-methyl-[1,2,4]triazolo[4,3-c]pyrimidin-5-yl)-3-methyl-2-oxa-8-azaspiro[4.5]decan-4-amine], in that order: 6.4 nM and 100 nM.
For `Cc1nc(N2CCC3(CC2)C[C@@H](O)C[C@H]3N)n2cnnc2c1-c1cccc(Cl)c1Cl` [Example 68, (2R,4R)-4-amino-8-(8-(2,3-dichlorophenyl)-7-methyl-[1,2,4]triazolo[4,3-c]pyrimidin-5-yl)-8-azaspiro[4.5]decan-2-ol], in that order: 9.4 nM and 440 nM.
Turning to `N[C@@H]1CCCC12CCN(c1nc(Cl)c(-c3cccc(Cl)c3Cl)c3nccn13)CC2` [Example 69, (R)-8-(7-chloro-8-(2,3-dichlorophenyl)imidazo[1,2-c]pyrimidin-5-yl)-8-azaspiro[4.5]decan-1-amine], the IC50 in test [1] came to 3.1 nM. Moreover, the EC50 in test [2] was found to be 86 nM.
The matching figures for `N[C@@H]1CCCC12CCN(c1ncc(Sc3cncc4ccccc34)c3nccn13)CC2` [Example 70, (R)-8-(8-(isoquinolin-4-ylthio)imidazo[1,2-c]pyrimidin-5-yl)-8-azaspiro[4.5]decan-1-amine]: 670 nM and 3900 nM.
On to `C[C@@H]1OCC2(CCN(c3ncc(Oc4cccc(Cl)c4Cl)c4nccn34)CC2)[C@@H]1N` [Example 71, (3S,4S)-8-(8-(2,3-dichlorophenoxy)imidazo[1,2-c]pyrimidin-5-yl)-3-methyl-2-oxa-8-azaspiro[4.5]decan-4-amine], for which the concentration for half-maximal inhibition (IC50) in test [1] amounted to 120 nM. Further, the EC50 in test [2] stood at 1400 nM.
